“Also recorded” adds a separate entry of the source.
What was measured:
[1] = Storage stability at room temperature, chemical purity by HPLC (Test Example 2); type: physicochemical
Description: The compounds (5) and (6) were each sealed in a glass bottle and stored at room temperature. At this time, the chemical purity of each compound was measured. After 6 weeks of storage and after 10 weeks of storage, the compound (5) was measured. After 19 months of storage, the compound (6) was measured. The chemical purity was represented by proportions of each compound and a degraded substance (compound (8)), calculated from area ratios measured by HPLC. HPLC measurement conditions are shown below. The chemical purity of the compound (6) was calculated on the basis of the peak of the compound (5).
Measurement wavelength: 220 nm
Column: TSKgel Octyl-80Ts, 4.6 mm I.D.×150 mm
Column temperature: 40° C.
Mobile phase A: acetonitrile
Mobile phase B: diluted phosphoric acid (1→1,000)

[2] = Change in physical properties during storage at room temperature (Test Example 1); type: physicochemical; details: for Physical properties, after 10 weeks: sealed in a glass bottle, stored at room temperature for 10 weeks
Text: The compound (5) was sealed in a glass bottle and stored at room temperature for 10 weeks. The compound (6) was sealed in a glass bottle and stored at room temperature for 19 months.

Proportion of the compound degraded ([1]; after 10 weeks of storage at room temperature): ≥ 50% | HPLC purity, peak Compound (5), after 6 weeks ([1]; sealed glass bottle, room temperature, 6 weeks, HPLC area ratio): 94.1% | HPLC purity, peak Compound (5), after 10 weeks ([1]; sealed glass bottle, room temperature, 10 weeks, HPLC area ratio): 38.4% | Physical properties, in synthesis ([2]; compound (5), before storage): WHITE POWDER | Physical properties, after 10 weeks [2]: YELLOW SEMI-SOLID
Structure (SMILES): CCc1cc(OC)cc(N)c1C(=O)O [Compound (5)]
Physical properties, after 10 weeks ([2]; listed as compound (5)): the physical properties were changed; also recorded: yellow semi-solid
